Data as given in the NIST ThermoML archive (doi:10.1016/j.tca.2008.12.029).
± gives the expanded uncertainty stated by the source.

Assay: molar heat capacity at constant pressure
Details: 101.33 kPa, Crystal, Vacuum adiabatic calorimetry

O=C([O-])c1ccccc1.[Na+] [sodium benzoate]
molar heat capacity at constant pressure (78.86 K): 74.66 ± 0.47 J/K/mol
molar heat capacity at constant pressure (80.43 K): 75.06 ± 0.47 J/K/mol
molar heat capacity at constant pressure (82.62 K): 76.58 ± 0.48 J/K/mol
molar heat capacity at constant pressure (84.79 K): 77.94 ± 0.49 J/K/mol
molar heat capacity at constant pressure (87.06 K): 79 ± 0.49 J/K/mol
molar heat capacity at constant pressure (89.08 K): 80.34 ± 0.5 J/K/mol
molar heat capacity at constant pressure (91.16 K): 81.6 ± 0.53 J/K/mol
molar heat capacity at constant pressure (93.24 K): 82.94 ± 0.54 J/K/mol
molar heat capacity at constant pressure (95.32 K): 83.73 ± 0.54 J/K/mol
molar heat capacity at constant pressure (97.26 K): 84.83 ± 0.55 J/K/mol
molar heat capacity at constant pressure (99.2 K): 86.09 ± 0.56 J/K/mol
molar heat capacity at constant pressure (101.14 K): 87.27 ± 0.56 J/K/mol
molar heat capacity at constant pressure (103.01 K): 88.2 ± 0.57 J/K/mol
molar heat capacity at constant pressure (104.89 K): 89.11 ± 0.57 J/K/mol
molar heat capacity at constant pressure (106.3 K): 89.81 ± 0.58 J/K/mol
molar heat capacity at constant pressure (107.72 K): 90.52 ± 0.58 J/K/mol
molar heat capacity at constant pressure (109.44 K): 91.63 ± 0.59 J/K/mol
molar heat capacity at constant pressure (111.32 K): 92.54 ± 0.59 J/K/mol
molar heat capacity at constant pressure (113.05 K): 93.55 ± 0.6 J/K/mol
molar heat capacity at constant pressure (114.93 K): 94.67 ± 0.6 J/K/mol
molar heat capacity at constant pressure (116.5 K): 95.37 ± 0.61 J/K/mol
molar heat capacity at constant pressure (118.38 K): 95.98 ± 0.61 J/K/mol
molar heat capacity at constant pressure (120.05 K): 97.43 ± 0.62 J/K/mol
molar heat capacity at constant pressure (122.61 K): 98.9 ± 0.63 J/K/mol
molar heat capacity at constant pressure (126.31 K): 100.57 ± 0.64 J/K/mol
molar heat capacity at constant pressure (129.87 K): 102.54 ± 0.65 J/K/mol
molar heat capacity at constant pressure (133.42 K): 104.11 ± 0.66 J/K/mol
molar heat capacity at constant pressure (137.05 K): 105.58 ± 0.67 J/K/mol
molar heat capacity at constant pressure (140.25 K): 107.64 ± 0.68 J/K/mol
molar heat capacity at constant pressure (143.52 K): 109.31 ± 0.69 J/K/mol
molar heat capacity at constant pressure (146.93 K): 111.38 ± 0.7 J/K/mol
molar heat capacity at constant pressure (150.2 K): 112.85 ± 0.71 J/K/mol
molar heat capacity at constant pressure (153.61 K): 114.42 ± 0.72 J/K/mol
molar heat capacity at constant pressure (156.74 K): 115.8 ± 0.73 J/K/mol
molar heat capacity at constant pressure (159.94 K): 117.1 ± 0.74 J/K/mol
molar heat capacity at constant pressure (163.08 K): 118.62 ± 0.75 J/K/mol
molar heat capacity at constant pressure (166.41 K): 120.71 ± 0.76 J/K/mol
molar heat capacity at constant pressure (169.54 K): 122.29 ± 0.77 J/K/mol
molar heat capacity at constant pressure (172.67 K): 124.15 ± 0.78 J/K/mol
molar heat capacity at constant pressure (175.8 K): 125.53 ± 0.79 J/K/mol
molar heat capacity at constant pressure (178.78 K): 127.2 ± 0.8 J/K/mol
molar heat capacity at constant pressure (182.05 K): 128.48 ± 0.81 J/K/mol
molar heat capacity at constant pressure (186.18 K): 130.74 ± 0.82 J/K/mol
molar heat capacity at constant pressure (190.73 K): 133.09 ± 0.83 J/K/mol
molar heat capacity at constant pressure (194.71 K): 134.96 ± 0.84 J/K/mol
molar heat capacity at constant pressure (198.69 K): 136.73 ± 0.85 J/K/mol
molar heat capacity at constant pressure (202.67 K): 138.89 ± 0.87 J/K/mol
molar heat capacity at constant pressure (206.65 K): 140.95 ± 0.88 J/K/mol
molar heat capacity at constant pressure (210.78 K): 143.02 ± 0.89 J/K/mol
molar heat capacity at constant pressure (214.62 K): 144.69 ± 0.9 J/K/mol
molar heat capacity at constant pressure (218.6 K): 147.24 ± 0.92 J/K/mol
molar heat capacity at constant pressure (222.72 K): 148.91 ± 0.93 J/K/mol
molar heat capacity at constant pressure (226.56 K): 150.78 ± 0.94 J/K/mol
molar heat capacity at constant pressure (230.54 K): 152.55 ± 0.95 J/K/mol
molar heat capacity at constant pressure (234.67 K): 154.3 ± 0.96 J/K/mol
molar heat capacity at constant pressure (238.65 K): 156.48 ± 0.97 J/K/mol
molar heat capacity at constant pressure (242.63 K): 158.35 ± 0.98 J/K/mol
molar heat capacity at constant pressure (247.75 K): 160.9 ± 1 J/K/mol
molar heat capacity at constant pressure (252.79 K): 162.99 ± 1 J/K/mol
molar heat capacity at constant pressure (256.71 K): 164.6 ± 1 J/K/mol
molar heat capacity at constant pressure (260.69 K): 166.7 ± 1 J/K/mol
molar heat capacity at constant pressure (264.71 K): 168.34 ± 1 J/K/mol
molar heat capacity at constant pressure (268.8 K): 170.63 ± 1.1 J/K/mol
molar heat capacity at constant pressure (272.92 K): 172.89 ± 1.1 J/K/mol
molar heat capacity at constant pressure (276.9 K): 174.76 ± 1.1 J/K/mol
molar heat capacity at constant pressure (280.74 K): 176.43 ± 1.1 J/K/mol
molar heat capacity at constant pressure (284.72 K): 178.39 ± 1.1 J/K/mol
molar heat capacity at constant pressure (288.7 K): 179.87 ± 1.1 J/K/mol
molar heat capacity at constant pressure (292.69 K): 181.54 ± 1.1 J/K/mol
molar heat capacity at constant pressure (295.1 K): 182.91 ± 1.1 J/K/mol
molar heat capacity at constant pressure (298.37 K): 184.58 ± 1.1 J/K/mol
molar heat capacity at constant pressure (301.36 K): 185.56 ± 1.1 J/K/mol
molar heat capacity at constant pressure (304.35 K): 186.94 ± 1.1 J/K/mol
molar heat capacity at constant pressure (307.33 K): 188.32 ± 1.2 J/K/mol
molar heat capacity at constant pressure (310.32 K): 189.49 ± 1.2 J/K/mol
molar heat capacity at constant pressure (313.3 K): 190.87 ± 1.2 J/K/mol
molar heat capacity at constant pressure (316.29 K): 191.75 ± 1.2 J/K/mol
molar heat capacity at constant pressure (319.28 K): 192.93 ± 1.2 J/K/mol
molar heat capacity at constant pressure (322.12 K): 194.21 ± 1.2 J/K/mol
molar heat capacity at constant pressure (325.11 K): 195.49 ± 1.2 J/K/mol
molar heat capacity at constant pressure (327.81 K): 196.77 ± 1.2 J/K/mol
molar heat capacity at constant pressure (329.51 K): 197.36 ± 1.2 J/K/mol
molar heat capacity at constant pressure (332.93 K): 198.63 ± 1.2 J/K/mol
molar heat capacity at constant pressure (335.35 K): 199.91 ± 1.2 J/K/mol
molar heat capacity at constant pressure (338.05 K): 200.79 ± 1.2 J/K/mol
molar heat capacity at constant pressure (340.89 K): 202.17 ± 1.2 J/K/mol
molar heat capacity at constant pressure (343.88 K): 202.96 ± 1.2 J/K/mol
molar heat capacity at constant pressure (346.72 K): 204.33 ± 1.3 J/K/mol
molar heat capacity at constant pressure (349.42 K): 205.02 ± 1.3 J/K/mol
molar heat capacity at constant pressure (352.27 K): 206.2 ± 1.3 J/K/mol
molar heat capacity at constant pressure (355.25 K): 207.28 ± 1.3 J/K/mol
molar heat capacity at constant pressure (358.1 K): 208.56 ± 1.3 J/K/mol
molar heat capacity at constant pressure (360.85 K): 209.38 ± 1.3 J/K/mol
molar heat capacity at constant pressure (363.79 K): 210.82 ± 1.3 J/K/mol
molar heat capacity at constant pressure (366.63 K): 212.19 ± 1.3 J/K/mol
molar heat capacity at constant pressure (369.62 K): 213.57 ± 1.3 J/K/mol
molar heat capacity at constant pressure (372.46 K): 214.53 ± 1.3 J/K/mol
molar heat capacity at constant pressure (375.3 K): 215.93 ± 1.3 J/K/mol
molar heat capacity at constant pressure (378.15 K): 217.2 ± 1.3 J/K/mol
molar heat capacity at constant pressure (380.99 K): 218.09 ± 1.3 J/K/mol
molar heat capacity at constant pressure (383.98 K): 219.66 ± 1.4 J/K/mol
molar heat capacity at constant pressure (386.68 K): 220.45 ± 1.4 J/K/mol
molar heat capacity at constant pressure (389.52 K): 221.82 ± 1.4 J/K/mol
molar heat capacity at constant pressure (392.37 K): 223.2 ± 1.4 J/K/mol
molar heat capacity at constant pressure (395.21 K): 224.18 ± 1.4 J/K/mol
molar heat capacity at constant pressure (397.91 K): 225.75 ± 1.4 J/K/mol
